# Data as given in patent US5081253A, “Imidazo(4,5-C)pyridines as antiosteoporotic agents” (American Home Products Corporation, priority 1990, dated 1992).
# How the values were obtained:
# [1] = tested on: Rat Limb Bones (PTH induced bone resorption); experiment: Bone Resorption Assay: 45Ca Release from Rat Limb Bones (PTH Induced); format: cell-based, rat (Sprague-Dawley CD)
# Protocol: The purpose of this assay is to identify compounds that inhibit basal or stimulated bone resorption in culture.
# The ability of 2-substituted-imidazo[4,5-c]pyridines to modify the process of bone resorption was evaluated essentially as described by L.G. Raisz, Bone resorption in tissue culture. Factors influencing the response to parathyroid hormone.
# Timed pregnant Sprague-Dawley CD® rats (Charles River) are administered 100 μCi ^45 CaCl2 (NEN calcium -45 NEZ-013) in 100 μL of 0.9% saline, subcutaneously, on day 18 of gestation. The rats are sacrificed the following day by CO2 asphyxiation. The fetuses are removed and the right forelimbs excised and placed in a Petri dish containing ice cold explant medium consisting of modified BGJb -Fitton Jackson media (custom formulation, Gibco No. 78-0088) adjusted to pH 7.3 to which 10 mM TES is added. […] Under a dissecting microscope, the bones are gently cleaned of adherent tissue and the cartilaginous ends removed. Incubation and drug treatment. […] The preincubation medium is brought to 37° C. prior to transfer of bones. The preincubation medium consists of the modified BGJb medium (with salts and glucose as above), pH 7.3, containing 29 mM NaHCO3. […] For compounds that require nonaqueous solvents, dilutions are made from the appropriate stock solution with medium. In these instances, basal and bone resorption stimulated controls exposed to an equivalent concentration of the vehicle are included. […] The right ulna and radius from each fetus are used. Both bones are subjected to the same treatment and each treatment group consists of bones from 4 or more fetuses. Treatments are randomly assigned using a preclinical statistics program (PS-ALLOC). After a 48 hour incubation at 37° C. in 5% CO2, the bones are removed from the medium and extracted in 0.5 mL of 0.1N HCl for 1 or more days. Duplicate 150 μL aliquots of the incubation medium and the bone extract are analyzed for ^45 Ca radioactivity in 5 mL of liquid scintillation cocktail.
# The percentage of bone ^45 Ca released into the medium is determined as follows: [formula] […]
# [2] = tested on: Rat Limb Bones (basal bone resorption); experiment: Basal Bone Resorption Assay: 45Ca Release from Rat Limb Bones; format: cell-based
# Excerpt: The purpose of this assay is to test stimulators and inhibitors of bone resorption in vitro. The release of ^45 Ca from in vitro labeled murine bone explants into the culture media is taken as an index of bone resorption.
# Rat pups are labelled […] by injecting pregnant dams (18 days) with 100 μCi of ^45 Ca.
# Two days after the initiation of labelling, the dam is anesthetized with halothane and killed by cervical dislocation. The pups are ablated and quickly decapitated. The calvaria (frontal and parietal bones), forelimbs (containing radii and ulnae), and hind limbs (tibiae) are removed and placed in control media in a petri dish. Bones are debrided of soft tissue by a combination of blunt dissection, and gentle rolling on bibulous paper, taking care not to disturb the periosteum. Cartilaginous ends are cut off long bones. Calvaria are cut in half along midline suture. Bones are separated into 3 categories: calvaria halves, Tibiae and ulnae/radii. Groups of eight (per bone group) are randomly placed in 24-well culture plates containing 0.5 mL of control media. Cultures are maintained at 37° C. in a humidified incubator of 95% air: 5% CO2.
# These bones are incubated for 24 hours, media is aspirated from the bones and replaced with fresh media containing test substances. Each bone group has a control group of 8 and a dead bone group of 8. The devitalized cultures are obtained by heating the bones in medium at 55° C. for 60 minutes. The bones are incubated at 37° C. for an additional 72 hours. At the end of this period a 100 microliter aliquot of media is removed and placed in a scintillation vial. Ten mL of Aquasol is added, the ^45 Ca is quantified in a scintillation spectrometer. Bones are rinsed in saline, placed in a scintillation vial, hydrolyzed overnight in 0.75 mL 6N HCl at room temperature. The hydrolyzed bone solution is neutralized by the addition of 2.25 mL of 2N NaOH, followed by 10 mL of Aquasol, the ^45 Ca content is determined by scintillation spectrometry.
# Analysis: ^45 Ca release into culture medium from the 24-96 hour period is individually compared to ^45 Ca release in control cultures and to devitalized bone via Dunnett's test. […]
# [3] = tested on: osteopenia induced by denervation of the sciatic nerve in rats; experiment: Denervation Induced Osteopenia in Rats; format: in vivo, rat (female Sprague Dawley CD)
# Excerpt: The purpose of this assay is to evaluate the effect, in rats, of agents on the reduction in bone mass (osteopenia) induced by immobilization resulting from surgical severance (denervation) of the sciatic nerve.
# The animals are housed in plastic cages (4 or 5 rats/cage) with food (rat purina 500 chow) and water ad libitum; 14/10 day/night cycle.
# After one week of in-house acclimatization, the animals are randomly divided into groups of 6 to 10 rats/group. Each rat is weighed, anesthetized with an intraperitoneal administration of 100 mg/kg ketamine (Bristol Laboratories, Syracuse, N.Y.) and 0.75 mg/kg Acepromazine (Aveco, Ft. Dodge, Iowa). The left hind limb is shaved and denervated by making a lateral incision parallel to the femur and by surgically removing half of a centimeter of the sciatic nerve adjacent to caudofemoralis and adductor brevis muscles. The incision is closed with wound clips. After surgery, the rats are housed in cages with absorbent bedding to minimize additional trauma to the immobilized limb. A 24 hour post-surgery recovery period is allowed before the initiation of the drug treatment.
# The concentration of the drug stock is calculated to be delivered in a volume of 0.1 mL/100 gram body weight. The drug solution or a uniform suspension is prepared in 1% Tween 80 in normal saline. The drugs are administered via oral or parenteral routes daily (five times a week) for four weeks.
# A sequential triple labeling of mineralized tissue is employed to determine the osseous changes (especially the bone formation) and the mineralization rates. Each animal is administered 90 mg/kg Xylenol orange (Fisher Scientific Company), S.C., 15 mg/kg Calcein (Sigma Chemical Company), S.C. and 15 mg/kg Demeclocycline (Sigma Chemical Company), i.p., approximately 21 days, 10 days and 2 days prior to the termination of the study, respectively.
# At the end of the fourth week, each rat is weighed, anesthetized with an intraperitoneal administration of 100 mg/kg ketamine with 0.75 mg/kg Acepromazine and approximately 4 mL of blood collected via cardiac puncture. The anesthetized rats are euthanized by exposure to carbon dioxide. The femora and tibiae from both limbs are dissected free of soft tissue. (i) Femora are ashed at ~1100° C. for 16 hours using a muffle furnace. --(ii) Proximal tibia are fixed, dehydrated and embedded undecalcified in a methyl methacrylate-glycol methacrylate mixture. Longitudinal tissue sections (10 microns) are prepared on a Polycut S microtome (Reichert). Staining is performed on free-floating sections using a modified Goldner's stain, which are then mounted and coverslipped.
# Cancellous bone content in the proximal tibia is quantified (as two dimensional bone mineral area [B.Ar]) with an image analysis processing device (software developed by Drexel University).
# The areas of the tibia selected for cancellous bone content evaluation are the primary and secondary spongiosa. To select and standardize this area for evaluation, the epiphyseal growth plate-metaphyseal junction is oriented parallel to the abscissa of the digitizing screen. Bone elements 1.7 mm (secondary spongiosa) and 0.2 mm (primary spongiosa) from the growth plate and equidistant from the flanking cortical elements are then quantified as described above. The total area evaluated is 2.30 mm wide and 1.45 mm deep, constituting a 3.34 mm^2 area.
# Body weight, femur mass (dried or ashed) and trabecular (cancellous) bone mineral area (B.Ar) are determined.
# The difference (both absolute and percent change) in femur mass and bone mineral area between intact (control) and denervated limbs of a treatment group are compared with that for the vehicle group using a one-way analysis of variance with Dunnett's test, or other multiple comparison methods.
# The results are reported in Table I and II under the heading In Vivo.
# [4] = Table I, concentration not given
smiles,measurement,setting,value
[O-][S+](Cc1cc2c(cc1Cl)OCO2)c1nc2cnccc2[nH]1 (stereo not drawn) [Example 25],"Inhibition of Bone Resorption, PTH Induced","[1]; Table I, 10 μg/mL",Active
same,"Inhibition of Bone Resorption, Basal","[2]; Table I, 10 μg/mL",Active
same,"Inhibition of Bone Resorption, In Vivo","[3]; po, 672 h",Inactive
"Fc1c(F)c(F)c(CSc2nc3cnccc3[nH]2)c(F)c1F [Example 32, 2-[[(Pentafluorophenyl)methyl]thio]-1H-imidazo[4,5-c]pyridine]","Inhibition of Bone Resorption, PTH Induced","[1]; Table II, 10 μg/mL",Inactive
same,"Inhibition of Bone Resorption, Basal","[2]; Table II, 10 μg/mL",Inactive
same,"Inhibition of Bone Resorption, In Vivo","[3]; Table II, 25 mg/kg, p.o.",Inactive
"COc1cccc(CSc2nc3cnccc3[nH]2)c1 [Example 2, 2-[[(3-Methoxyphenyl)methyl]thio]-1H-imidazo[4,5-c]pyridine]","Inhibition of Bone Resorption, PTH Induced","[1]; Table II, 10 μg/mL",Inactive
same,"Inhibition of Bone Resorption, Basal","[2]; Table II, 10 μg/mL",Inactive
same,"Inhibition of Bone Resorption, In Vivo","[3]; Table II, 25 mg/kg, i.p.",Active
"COc1cccc(CC[S+]([O-])c2nc3cnccc3[nH]2)c1 (stereo not drawn) [Example 17, 2-[[(3 -Methoxyphenyl)ethyl]sulfinyl]-1H-imidazo[4,5-c]pyridine]","Inhibition of Bone Resorption, PTH Induced","[1]; Table I, 10 μg/mL",Active
same,"Inhibition of Bone Resorption, Basal","[2]; Table I, 10 μg/mL",Inactive
same,"Inhibition of Bone Resorption, In Vivo","[3]; Table I, no dose given, oral or parenteral daily (five times a week) for four weeks",Borderline
"[O-][S+](Cc1ccc(Cl)c(Cl)c1)c1nc2cnccc2[nH]1 (stereo not drawn) [Example 6, 2-[[(3,4-Dichlorophenyl)methyl]sulfinyl]-1H-imidazo[4,5-c]pyridine]","Inhibition of Bone Resorption, PTH Induced","[1]; Table I, 10 μg/mL",Active
same,"Inhibition of Bone Resorption, Basal","[2]; Table I, 10 μg/mL",Active
[O-][S+](Cc1cccc(OCc2ccccc2)c1)c1nc2cnccc2[nH]1 (stereo not drawn) [Example 23],"Inhibition of Bone Resorption, PTH Induced","[1]; Table I, 10 μg/mL",Active
same,"Inhibition of Bone Resorption, Basal","[2]; Table I, 10 μg/mL",Active
same,"Inhibition of Bone Resorption, In Vivo","[3]; po, 672 h",Inactive
"Fc1cc(Br)ccc1CSc1nc2cnccc2[nH]1 [Example 20, 2-[[(4-Bromo-2-fluorophenyl)methyl]thio]-1H-imidazo[4,5-c]pyridine]","Inhibition of Bone Resorption, PTH Induced","[1]; Table II, 10 μg/mL",Active
same,"Inhibition of Bone Resorption, Basal","[2]; Table II, 10 μg/mL",Inactive
"c1ccc(CCSc2nc3cnccc3[nH]2)cc1 [Example 13, 2-[(2-Phenylethyl)thio]-1H-imidazo[4,5-c]pyridine]","Inhibition of Bone Resorption, PTH Induced","[1]; Table II, 10 μg/mL",Inactive
same,"Inhibition of Bone Resorption, Basal","[2]; Table II, 10 μg/mL",Inactive
"COc1cccc(C[S+]([O-])c2nc3cnccc3[nH]2)c1 (stereo not drawn) [Example 3, 2-[[(3-Methoxyphenyl)methyl]sulfinyl]-1H-imidazo[4,5-c]pyridine]",IC50,"[1]; Rattus norvegicus, Table I, read-out: Inhibition of Bone Resorption, PTH Induced IC50",49 µM
same,"Inhibition of Bone Resorption, PTH Induced",[1]; [4],Active
same,"Inhibition of Bone Resorption, Basal","[2]; Table I, 10 μg/mL",Active
same,"Inhibition of Bone Resorption, In Vivo","[3]; po, 672 h",Active
"[O-][S+](Cc1c(F)cccc1Cl)c1nc2cnccc2[nH]1 (stereo not drawn) [Example 10, 2-[[(2-Chloro-6-fluorophenyl)methyl]-sulfinyl]-1H-imidazo[4,5-c]pyridine]","Inhibition of Bone Resorption, PTH Induced","[1]; Table I, 10 μg/mL",Active
same,"Inhibition of Bone Resorption, Basal","[2]; Table I, 10 μg/mL",Active
same,"Inhibition of Bone Resorption, In Vivo","[3]; po, 672 h",Inactive
"[O-][S+](Cc1cccc(C(F)(F)F)c1)c1nc2cnccc2[nH]1 (stereo not drawn) [Example 8, 2-[[[3-(Trifluoromethyl)phenyl]methyl]-sulfinyl]-1H-imidazo[4,5-c]pyridine]","Inhibition of Bone Resorption, PTH Induced","[1]; Table I, 10 μg/mL",Active
same,"Inhibition of Bone Resorption, Basal",[2]; [4],Inactive
"Fc1cccc(Cl)c1CSc1nc2cnccc2[nH]1 [Example 9, 2-[[(2-Chloro-6-fluorophenyl)methyl]thio]-1H-imidazo[4,5-c]pyridine]","Inhibition of Bone Resorption, PTH Induced","[1]; Table II, 10 μg/mL",Inactive
same,"Inhibition of Bone Resorption, Basal","[2]; Table II, 10 μg/mL",Inactive
"COc1ccc(CSc2nc3cnccc3[nH]2)cc1 [Example 26, 2-[[(4-Methoxyphenyl)methyl]thio]-1H-imidazo[4,5-c]pyridine]","Inhibition of Bone Resorption, PTH Induced","[1]; Table II, 10 μg/mL",Active
same,"Inhibition of Bone Resorption, Basal","[2]; Table II, 10 μg/mL",Inactive
same,"Inhibition of Bone Resorption, In Vivo","[3]; Table II, 25 mg/kg, p.o.",Inactive
"c1ccc(COc2cccc(CSc3nc4cnccc4[nH]3)c2)cc1 [Example 22, 2-[[[3-(Phenylmethoxy)phenyl]methyl]thio]-1H-imidazo[4,5-c]pyridine]","Inhibition of Bone Resorption, PTH Induced","[1]; Table II, 10 μg/mL",Active
same,"Inhibition of Bone Resorption, Basal","[2]; Table II, 10 μg/mL",Inactive
"c1ccc(CSc2nc3cnccc3[nH]2)cc1 [Example 11, 2-[[(Phenyl)methyl]thio]-1H-imidazo[4,5-c]pyridine]","Inhibition of Bone Resorption, Basal","[2]; Table II, 10 μg/mL",Inactive
"[O-][S+](CCc1ccccc1)c1nc2cnccc2[nH]1 (stereo not drawn) [Example 14, 2-[(2-Phenylethyl)sulfinyl]-1H-imidazo[4,5-c]pyridine]","Inhibition of Bone Resorption, PTH Induced","[1]; Table I, 10 μg/mL",Active
same,"Inhibition of Bone Resorption, Basal","[2]; Table I, 10 μg/mL",Active
"FC(F)(F)c1cccc(CSc2nc3cnccc3[nH]2)c1 [Example 7, 2-[[[3-(Trifluoromethyl)phenyl]methyl]thio]-1H-imidazo[4,5-c]pyridine]","Inhibition of Bone Resorption, Basal","[2]; Table II, 10 μg/mL",Active
"Clc1ccc(CSc2nc3cnccc3[nH]2)cc1Cl [Example 5, 2-[[(3,4-Dichlorophenyl)methyl]thio]-1H-imidazo[4,5-c]pyridine]","Inhibition of Bone Resorption, Basal","[2]; Table II, 10 μg/mL",Inactive
